Results published in the NIST ThermoML archive (doi:10.1016/j.jct.2016.03.026).
± gives the expanded uncertainty stated by the source.

Assay: xn = mol fraction of the nth substance listed
Conditions: 263.15 K, Fluid (supercritical or subcritical phases), Vibrating tube method, x1 = 0.97

O=C=O [carbon dioxide] + CO
Conditions | mass density [kg/m3]
7525 kPa | 1006.96 ± 0.8
7550 kPa | 1007.04 ± 0.8
7575 kPa | 1007.2 ± 0.8
7600 kPa | 1007.28 ± 0.8
7625 kPa | 1007.38 ± 0.8
7650 kPa | 1007.53 ± 0.8
7675 kPa | 1007.61 ± 0.8
7700 kPa | 1007.76 ± 0.8
7725 kPa | 1007.86 ± 0.8
7750 kPa | 1007.94 ± 0.8
7775 kPa | 1008.1 ± 0.8
7800 kPa | 1008.18 ± 0.8
7825 kPa | 1008.35 ± 0.8
7850 kPa | 1008.43 ± 0.8
7875 kPa | 1008.51 ± 0.8
7900 kPa | 1008.68 ± 0.8
7925 kPa | 1008.76 ± 0.8
7950 kPa | 1008.84 ± 0.8
7975 kPa | 1009 ± 0.8
8000 kPa | 1009.08 ± 0.8
8025 kPa | 1009.16 ± 0.8
8050 kPa | 1009.33 ± 0.8
8075 kPa | 1009.41 ± 0.8
8100 kPa | 1009.54 ± 0.8
8125 kPa | 1009.66 ± 0.8
8150 kPa | 1009.74 ± 0.8
8175 kPa | 1009.86 ± 0.8
8200 kPa | 1009.98 ± 0.8
8225 kPa | 1010.06 ± 0.8
8250 kPa | 1010.23 ± 0.8
8275 kPa | 1010.31 ± 0.8
8300 kPa | 1010.39 ± 0.8
8325 kPa | 1010.56 ± 0.8
8350 kPa | 1010.64 ± 0.8
8375 kPa | 1010.74 ± 0.8
8400 kPa | 1010.88 ± 0.8
8425 kPa | 1010.96 ± 0.8
8450 kPa | 1011.04 ± 0.8
8475 kPa | 1011.21 ± 0.8
8500 kPa | 1011.29 ± 0.8
8525 kPa | 1011.44 ± 0.8
8550 kPa | 1011.54 ± 0.8
8575 kPa | 1011.62 ± 0.8
8600 kPa | 1011.73 ± 0.8
8625 kPa | 1011.86 ± 0.8
8650 kPa | 1011.94 ± 0.8
8675 kPa | 1012.05 ± 0.8
8700 kPa | 1012.19 ± 0.8
8725 kPa | 1012.27 ± 0.8
8750 kPa | 1012.41 ± 0.8
8775 kPa | 1012.52 ± 0.8
8800 kPa | 1012.6 ± 0.8
8825 kPa | 1012.76 ± 0.8
8850 kPa | 1012.85 ± 0.8
8875 kPa | 1012.93 ± 0.8
8900 kPa | 1013.03 ± 0.8
8925 kPa | 1013.17 ± 0.8
8950 kPa | 1013.25 ± 0.8
8975 kPa | 1013.35 ± 0.8
9000 kPa | 1013.49 ± 0.8
9025 kPa | 1013.58 ± 0.8
9050 kPa | 1013.66 ± 0.8
9075 kPa | 1013.83 ± 0.8
9100 kPa | 1013.91 ± 0.8
9125 kPa | 1013.99 ± 0.8
9150 kPa | 1014.08 ± 0.8
9175 kPa | 1014.23 ± 0.8
9200 kPa | 1014.31 ± 0.8
9225 kPa | 1014.39 ± 0.8
9250 kPa | 1014.56 ± 0.8
9275 kPa | 1014.64 ± 0.8
9300 kPa | 1014.72 ± 0.8
9325 kPa | 1014.89 ± 0.8
9350 kPa | 1014.97 ± 0.8
9375 kPa | 1015.05 ± 0.8
9400 kPa | 1015.13 ± 0.8
9425 kPa | 1015.3 ± 0.8
9450 kPa | 1015.38 ± 0.8
9475 kPa | 1015.46 ± 0.8
9500 kPa | 1015.54 ± 0.8
9525 kPa | 1015.7 ± 0.8
9550 kPa | 1015.78 ± 0.8
9575 kPa | 1015.87 ± 0.8
9600 kPa | 1016.03 ± 0.8
9625 kPa | 1016.11 ± 0.8
9650 kPa | 1016.19 ± 0.8
9675 kPa | 1016.28 ± 0.8
9700 kPa | 1016.44 ± 0.8
9725 kPa | 1016.52 ± 0.8
9750 kPa | 1016.6 ± 0.8
9775 kPa | 1016.77 ± 0.8
9800 kPa | 1016.85 ± 0.8
9825 kPa | 1016.93 ± 0.8
9850 kPa | 1017.01 ± 0.8
9875 kPa | 1017.17 ± 0.8
9900 kPa | 1017.25 ± 0.8
9925 kPa | 1017.34 ± 0.8
9950 kPa | 1017.47 ± 0.8
9975 kPa | 1017.58 ± 0.8
10000 kPa | 1017.66 ± 0.8
10025 kPa | 1017.74 ± 0.8
10050 kPa | 1017.83 ± 0.8
10075 kPa | 1017.99 ± 0.8
10100 kPa | 1018.07 ± 0.8
10125 kPa | 1018.15 ± 0.8
10150 kPa | 1018.23 ± 0.8
10175 kPa | 1018.34 ± 0.8
10200 kPa | 1018.48 ± 0.8
10225 kPa | 1018.56 ± 0.8
10250 kPa | 1018.68 ± 0.8
10275 kPa | 1018.81 ± 0.8
10300 kPa | 1018.89 ± 0.8
10325 kPa | 1018.97 ± 0.8
10350 kPa | 1019.09 ± 0.8
10375 kPa | 1019.21 ± 0.8
10400 kPa | 1019.3 ± 0.8
10425 kPa | 1019.38 ± 0.8
10450 kPa | 1019.46 ± 0.8
10475 kPa | 1019.62 ± 0.8
10500 kPa | 1019.7 ± 0.8
10525 kPa | 1019.78 ± 0.8
10550 kPa | 1019.87 ± 0.8
